Laboratory results from ChEMBL document CHEMBL1201862, “PubChem BioAssay data set” (2004).
Calls of active or inactive are those of the source. Where a SMILES comes first, the peptide text is derived from it. The star is where a group is joined. Boc = CC(C)(C)OC(=O)*; Bn = c1ccc(C*)cc1; NHNH2 = NN*

Key:
[1] = cytotoxicity in HEK-293T cells, dose response, cytotoxicity control for BCR NF-kB inhibitor project, luminescence, B-cell screen hits (AID 489021); format: functional, cell-based;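 further: HEK-293T cells carrying an NF-kB luciferase reporter; cells exposed to compound for about 14 hours before viability readout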
[2] = target: T1, Estrogen receptor (Homo sapiens, UniProt P03372);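 further: potency for inhibiting coactivator peptide recruitment to the receptor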
T1 sequence (P03372 whole entry): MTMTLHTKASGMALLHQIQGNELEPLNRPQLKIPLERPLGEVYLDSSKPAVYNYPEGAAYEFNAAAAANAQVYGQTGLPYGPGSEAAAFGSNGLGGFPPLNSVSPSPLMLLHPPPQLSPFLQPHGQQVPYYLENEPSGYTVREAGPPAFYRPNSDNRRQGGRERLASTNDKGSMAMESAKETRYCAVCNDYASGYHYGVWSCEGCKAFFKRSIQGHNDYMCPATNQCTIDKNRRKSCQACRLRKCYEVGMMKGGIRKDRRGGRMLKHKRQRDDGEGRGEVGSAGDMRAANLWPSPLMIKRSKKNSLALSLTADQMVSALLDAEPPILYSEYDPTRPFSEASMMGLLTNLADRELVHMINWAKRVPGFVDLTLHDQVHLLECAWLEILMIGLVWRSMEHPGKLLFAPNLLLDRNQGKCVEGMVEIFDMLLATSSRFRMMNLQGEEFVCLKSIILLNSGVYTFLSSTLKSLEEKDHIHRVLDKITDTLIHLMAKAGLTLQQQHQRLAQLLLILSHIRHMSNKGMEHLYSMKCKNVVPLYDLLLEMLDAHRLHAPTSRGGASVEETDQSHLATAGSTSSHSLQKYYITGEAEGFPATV

[3] = target: T2, Aminopeptidase N (Plasmodium falciparum FcB1/Columbia, UniProt O96935); assay: P. falciparum M1AAP inhibitors, biochemical, fluorogenic H-Leu-NHMec substrate, 1536-well (AID 1445); set-up: species or system Plasmodium falciparum 3D7, 3D7
T2 sequence (O96935 whole entry): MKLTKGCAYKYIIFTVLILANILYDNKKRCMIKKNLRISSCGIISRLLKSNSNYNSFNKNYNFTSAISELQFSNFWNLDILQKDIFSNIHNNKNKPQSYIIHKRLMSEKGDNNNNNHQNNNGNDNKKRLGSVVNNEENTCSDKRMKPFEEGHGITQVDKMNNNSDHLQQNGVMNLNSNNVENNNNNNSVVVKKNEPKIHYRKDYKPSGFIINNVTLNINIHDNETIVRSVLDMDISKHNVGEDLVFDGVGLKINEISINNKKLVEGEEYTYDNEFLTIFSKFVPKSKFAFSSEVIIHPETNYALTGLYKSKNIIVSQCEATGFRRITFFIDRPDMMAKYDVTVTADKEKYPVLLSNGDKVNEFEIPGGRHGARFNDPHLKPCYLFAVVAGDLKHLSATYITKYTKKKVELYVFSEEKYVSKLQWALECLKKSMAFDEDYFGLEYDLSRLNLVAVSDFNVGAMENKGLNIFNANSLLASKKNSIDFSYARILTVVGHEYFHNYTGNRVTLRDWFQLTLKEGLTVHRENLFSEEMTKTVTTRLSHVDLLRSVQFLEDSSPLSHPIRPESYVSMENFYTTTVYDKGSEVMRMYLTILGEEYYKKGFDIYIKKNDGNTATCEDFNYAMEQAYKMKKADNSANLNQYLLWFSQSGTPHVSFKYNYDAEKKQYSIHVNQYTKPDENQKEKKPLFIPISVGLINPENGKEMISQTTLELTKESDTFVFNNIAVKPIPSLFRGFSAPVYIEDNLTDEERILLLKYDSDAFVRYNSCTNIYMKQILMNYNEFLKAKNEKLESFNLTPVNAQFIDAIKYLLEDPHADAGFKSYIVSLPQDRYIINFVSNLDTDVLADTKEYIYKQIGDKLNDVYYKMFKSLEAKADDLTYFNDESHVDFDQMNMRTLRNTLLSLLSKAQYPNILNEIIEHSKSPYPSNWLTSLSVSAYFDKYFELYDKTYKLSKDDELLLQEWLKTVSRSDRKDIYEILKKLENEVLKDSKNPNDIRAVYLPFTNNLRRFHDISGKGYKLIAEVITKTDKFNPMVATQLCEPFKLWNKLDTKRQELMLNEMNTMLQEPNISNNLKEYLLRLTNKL

[4] = cytotoxicity in KRAS-transformed pancreatic duct cells, primary screen, cell-based, fluorescence, HTS (AID 431); format: functional; conditions: Homo sapiens;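 further: cell line used: HPDE-C7K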
[5] = cytotoxicity in HPDE-C7 cells, cell-based, fluorescence, HTS (AID 430); format: functional; conditions: Homo sapiens
[6] = NIH-3T3 fibroblast cytotoxicity, dose response, cytotoxicity control, cell-based, fluorescence, Alamar Blue, secondary assay (AID 2327); format: functional;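 further: NIH-3T3 mouse fibroblasts cultured with fluconazole at 8 µg/mL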
[7] = THP-1 cell cytotoxicity, dose response, cytotoxicity control for Vif-APOBEC3G degradation inhibitor project, THP-1 cells (AID 1117359); format: functional; conditions: Human immunodeficiency virus 1, THP-1

Row | SMILES | IC50 [2] | IC50 [3] | also measured
1 | COc1ccc(/C=C2/SC(=S)N(CCC(=O)O)C2=O)cc1 | – | – | IC50 [1]: > 80 µM (inactive)
2 | CCOC(=O)CSc1nn(C)c(=S)s1 | 7.98 µM (active) | – | –
3 | N#CC1=C2SCC(O)(c3ccccc3)N2C(=O)CC1c1cccs1 (centres undefined) | – | – | EC50 [4]: 1.53 µM (active); EC50 [5]: 1.44 µM (active)
4 | COc1ccc(C(=O)Oc2c(CN3CCOCC3)cc(Cl)c3cccnc23)cc1 | – | – | EC50 [6]: > 160 µM (inactive); EC50 [4]: 13.4 µM (active); EC50 [5]: 5.17 µM (active); CC50 [7]: 5.39 µM (active)
5 | CCCSc1nc(C)c(-c2csc(C(C#N)=C3CCCC3)n2)cc1C#N | 9.34 µM (active) | – | –

Now from value to compound, other results behind:

Row | IC50 [2] | IC50 [3] | SMILES | also measured
6 | – | 81.5 µM (active) | COc1ccc(/C=C(\CC(=O)O)c2nc3ccccc3o2)cc1 | –
7 | 9.54 µM (active) | – | CCOc1ccc(Nc2oc(-c3ccccc3Cl)nc2C#N)cc1 | –
8 | – | 68.9 µM (active) | Cc1ccc2nc(O)c(C3=NN(C(=O)CCC(=O)O)C(c4cccs4)C3)c(-c3ccccc3)c2c1 (centres undefined) | –
9 | – | 53.9 µM (active) | COc1ccc(/C=N/NC(=O)c2cccc(NC(=O)c3ccccc3Cl)c2)cc1OC | –
10 | – | 81.4 µM (active) | CC(C)CC(NC(=O)C(COCc1ccccc1)NC(=O)OC(C)(C)C)C(=O)NN (centres undefined) (Boc-Ser(Bn)-Leu-NHNH2; configuration not given here) | –
